In publication PMC9374667 (Communications Biology, 2022):
Several values for one entry are separate records, joined by “and”; a condition that tells them apart may be missing. Equal values may be shown once.

Experiments:
db/db mice [1] = experiment: Glucose tolerance test (GTT); type: in vivo; settings: for blood glucose level, mean: mean of 10 mice
db/db mice [2] = experiment: Body weight of db/db mice during 35-day treatment; type: in vivo; settings: db/db mice
Experimental: The lean wild type control and the db/db control mice were given equal vehicle volume (0.5% CMC-Na solution). All mice were monitored for food intake, body weight, and fasting blood glucose during the 35-day trial. Glucose tolerance test (GTT) and insulin resistance test (ITT) were performed at 4 and 5 weeks of treatment, respectively. Metabolic analysis was performed at 5 weeks of treatment. At the end of the study, blood samples were taken through the retroorbital venous sinus of mice, fat depots (brown fat, inguinal subcutaneous fat, epididymal fat, perirenal fat and mesenteric fat depot) were dissected, weighed, and immediately frozen in liquid nitrogen and stored at −80 °C until required. Weight of fat depots are expressed in percentage (fat depots weight /bodyweight * 100%).

CC(C)Cc1ccc(C(C)C(=O)[O-])cc1.COc1ccc2cc3[n+](cc2c1OC)CCc1cc2c(cc1-3)OCO2.O.O.O.O [BJ, berberine-ibuprofen]
blood glucose level, mean (db/db mice [1]; BJ 75mg/kg, time column 1 of 7 (time not printed)): 20.5 mmol/L
blood glucose level, mean (db/db mice [1]; BJ 75mg/kg, time column 2 of 7 (time not given)): 26.6 mmol/L
blood glucose level, mean (db/db mice [1]; BJ 75mg/kg, time column 3 of 7 (time not given)): 31.4 mmol/L
blood glucose level, mean (db/db mice [1]; BJ 75mg/kg, time column 4 of 7 (time not given)): 32 mmol/L
blood glucose level, mean (db/db mice [1]; BJ 75mg/kg, time column 5 of 7 (time not given)): 31.2 mmol/L
blood glucose level, mean (db/db mice [1]; BJ 75mg/kg, time column 6 of 7 (time not given)): 28.2 mmol/L
blood glucose level, mean (db/db mice [1]; BJ 75mg/kg, time column 7 of 7 (time not printed)): 23.2 mmol/L
blood glucose level, mean (db/db mice [1]; BJ 150mg/kg, time column 1 of 7 (time not printed)): 12.3 mmol/L
blood glucose level, mean (db/db mice [1]; BJ 150mg/kg, time column 2 of 7 (time not given)): 26.4 mmol/L
blood glucose level, mean (db/db mice [1]; BJ 150mg/kg, time column 3 of 7 (time not given)): 27.7 mmol/L
blood glucose level, mean (db/db mice [1]; BJ 150mg/kg, time column 4 of 7 (time not given)): 24.1 mmol/L
blood glucose level, mean (db/db mice [1]; BJ 150mg/kg, time column 5 of 7 (time not given)): 21.2 mmol/L
blood glucose level, mean (db/db mice [1]; BJ 150mg/kg, time column 6 of 7 (time not given)): 18.4 mmol/L
blood glucose level, mean (db/db mice [1]; BJ 150mg/kg, time column 7 of 7 (time not printed)): 15.8 mmol/L
Glucose tolerance (GTT) (db/db mice [1]; db/db mice, 150 mg/kg, week 4): displayed better tolerance to glucose load
Body weight (db/db mice [2]; 75 mg/kg gavage once per day, day 1, individual mice, 75 mg/kg): 42 grams and 38 grams and 33 grams and 41 grams and 34 grams and 40 grams
Body weight (db/db mice [2]; 75 mg/kg gavage once per day, day 4, individual mice, 75 mg/kg): 44 grams and 40 grams and 36 grams and 41 grams and 39 grams and 42 grams
Body weight (db/db mice [2]; 75 mg/kg gavage once per day, day 7, individual mice, 75 mg/kg): 45 grams and 40 grams and 41 grams and 35 grams and 43 grams and 36 grams
Body weight (db/db mice [2]; 75 mg/kg gavage once per day, day 10, individual mice, 75 mg/kg): 43 grams and 40 grams and 42 grams and 35 grams and 44 grams and 36 grams
Body weight (db/db mice [2]; 75 mg/kg gavage once per day, day 13, individual mice, 75 mg/kg): 45 grams and 42 grams and 43 grams and 35 grams and 37 grams and 41 grams and 44 grams
Body weight (db/db mice [2]; 75 mg/kg gavage once per day, day 16, individual mice, 75 mg/kg): 44 grams and 42 grams and 37 grams and 46 grams and 39 grams
Body weight (db/db mice [2]; 75 mg/kg gavage once per day, day 19, individual mice, 75 mg/kg): 47 grams and 42 grams and 46 grams and 38 grams and 48 grams and 37 grams and 44 grams and 45 grams and 41 grams
Body weight (db/db mice [2]; 75 mg/kg gavage once per day, day 22, individual mice, 75 mg/kg): 49 grams and 44 grams and 48 grams and 39 grams and 38 grams and 46 grams and 47 grams and 42 grams
Body weight (db/db mice [2]; 75 mg/kg gavage once per day, day 25, individual mice, 75 mg/kg): 50 grams and 45 grams and 49 grams and 40 grams and 48 grams and 38 grams and 46 grams and 42 grams
Body weight (db/db mice [2]; 75 mg/kg gavage once per day, day 28, individual mice, 75 mg/kg): 50 grams and 46 grams and 40 grams and 49 grams and 45 grams and 47 grams and 41 grams
Body weight (db/db mice [2]; 75 mg/kg gavage once per day, day 31, individual mice, 75 mg/kg): 53 grams and 47 grams and 52 grams and 40 grams and 50 grams and 41 grams and 43 grams
Body weight (db/db mice [2]; 75 mg/kg gavage once per day, day 34, individual mice, 75 mg/kg): 52 grams and 47 grams and 44 grams and 51 grams and 43 grams and 50 grams and 45 grams and 48 grams
Average body weight gain (db/db mice [2]; 75 mg/kg gavage once per day, day 35, mean ± SD): 9.4 ± 2.7 g
Body weight gain in 5 weeks (db/db mice [2]; 75 mg/kg gavage once per day, individual mice, 75 mg/kg): 7 grams and 10 grams and 9 grams and 14 grams and 11 grams
Body weight (db/db mice [2]; 150 mg/kg gavage once per day, day 1, individual mice, 150 mg/kg): 38 grams and 44 grams
Body weight (db/db mice [2]; 150 mg/kg gavage once per day, day 4, individual mice, 150 mg/kg): 39 grams
Body weight (db/db mice [2]; 150 mg/kg gavage once per day, day 7, individual mice, 150 mg/kg): 39 grams
Body weight (db/db mice [2]; 150 mg/kg gavage once per day, day 10, individual mice, 150 mg/kg): 38 grams
Body weight (db/db mice [2]; 150 mg/kg gavage once per day, day 13, individual mice, 150 mg/kg): 40 grams
Body weight (db/db mice [2]; 150 mg/kg gavage once per day, day 16, individual mice, 150 mg/kg): 39 grams
Body weight (db/db mice [2]; 150 mg/kg gavage once per day, day 19, individual mice, 150 mg/kg): 39 grams
Body weight (db/db mice [2]; 150 mg/kg gavage once per day, day 22, individual mice, 150 mg/kg): 37 grams
Body weight (db/db mice [2]; 150 mg/kg gavage once per day, day 25, individual mice, 150 mg/kg): 37 grams and 44 grams
